Measured values from ChEMBL document CHEMBL3351973, “4(α-l-rhamnosyloxy)-benzyl isothiocyanate, a bioactive phytochemical that attenuates secondary damage in an experimental model of spinal cord injury” (Bioorg Med Chem, 2015).
Activity calls are given as the source filed them.

What was measured:
Format in all cases: functional, organism-based
Set-up in all cases: dose 10 mg/kg
[1] = tested on: Mus musculus; experiment: Antiapoptotic activity in CD-1 mouse spinal cord injury model assessed as reduction in caspase expression at 10 mg/kg, ip measured on day 7 by Western blotting analysis relative to control
[2] = tested on: Mus musculus; experiment: Antiinflammatory activity in CD-1 mouse spinal cord injury model assessed as reduction of NF-kappaB-p65 level at 10 mg/kg, ip measured on day 7 by immunohistological analysis relative to control
[3] = tested on: Mus musculus; experiment: Antiapoptotic activity in CD-1 mouse spinal cord injury model assessed as reduction in Bax level at 10 mg/kg, ip measured on day 7 by immunohistological analysis relative to control
[4] = tested on: Mus musculus; experiment: Antiapoptotic activity in CD-1 mouse spinal cord injury model assessed as increase in Bcl-2 level at 10 mg/kg, ip measured on day 7 by immunohistological analysis relative to control
[5] = tested on: Mus musculus; experiment: Antiinflammatory activity in CD-1 mouse spinal cord injury model assessed as IkappaB-alpha expression at 10 mg/kg, ip measured on day 7 by Western blotting analysis relative to control
[6] = tested on: Mus musculus; experiment: Neuroprotective activity in CD-1 mouse spinal cord injury model assessed as alteration of white matter at 10 mg/kg, ip measured on day 7 by hematoxylin/eosin staining-based assay relative to control
[7] = tested on: Mus musculus; experiment: Protection against injury in CD-1 mouse spinal cord injury model assessed as infiltration of leukocyte at 10 mg/kg, ip measured on day 7 by hematoxylin/eosin staining-based assay relative to control
[8] = tested on: Mus musculus; experiment: Protection against injury in CD-1 mouse spinal cord injury model assessed as edema at 10 mg/kg, ip measured on day 7 by hematoxylin/eosin staining-based assay relative to control
[9] = tested on: Mus musculus; experiment: Antiinflammatory activity in CD-1 mouse spinal cord injury model assessed as reduction in iNOS expression at 10 mg/kg, ip measured on day 7 by immunohistological analysis relative to control
[10] = tested on: Mus musculus; experiment: Protection against injury in CD-1 mouse spinal cord injury model assessed as distribution of reticular fibre at 10 mg/kg, ip measured on day 7 by hematoxylin/eosin staining-based assay relative to control

Measured: Activity

C[C@@H]1O[C@@H](Oc2ccc(CN=C=S)cc2)[C@H](O)[C@H](O)[C@H]1O
active: all assays above
